Article PMC10848769, “Tartrolon E, a secondary metabolite of a marine symbiotic bacterium, is a potent inhibitor of asexual and sexual Plasmodium falciparum” (Antimicrobial Agents and Chemotherapy, 2024)
Read-outs that look alike come from different tables or passages of the source.

Experiments:
[1] = tested on: P. falciparum clone TM90C2A; conditions: by EC50 or, for ART, RSA, well-characterized susceptibilities; cited from earlier work
[2] = tested on: P. falciparum clone IPC 5202; parameters: method as in BEI, Didier Menard; conditions: by EC50 or, for ART, RSA, well-characterized susceptibilities, ref BEI, Didier Menard; cited from earlier work
P. falciparum clone 3D7 [3] = conditions: by EC50 or, for ART, RSA, well-characterized susceptibilities; cited from earlier work
P. falciparum clone HB3 [4] = conditions: by EC50 or, for ART, RSA, well-characterized susceptibilities; cited from earlier work
P. falciparum clone 7G8 [5] = conditions: by EC50 or, for ART, RSA, well-characterized susceptibilities; cited from earlier work
P. falciparum clone Dd2 [6] = conditions: by EC50 or, for ART, RSA, well-characterized susceptibilities; cited from earlier work
P. falciparum clone D6 [7] = conditions: by EC50 or, for ART, RSA, well-characterized susceptibilities; cited from earlier work
P. falciparum clone GMC1 [8] = conditions: by EC50 or, for ART, RSA, well-characterized susceptibilities; cited from earlier work
[9] = tested on: P. falciparum clone IPC 3445; parameters: method as in BEI, Didier Menard; conditions: by EC50 or, for ART, RSA, well-characterized susceptibilities, ref BEI, Didier Menard; cited from earlier work
P. falciparum clone NF54 [10] = conditions: by EC50 or, for ART, RSA, well-characterized susceptibilities; cited from earlier work
P. falciparum clone V1/S [11] = conditions: by EC50 or, for ART, RSA, well-characterized susceptibilities; cited from earlier work
[12] = tested on: P. falciparum 3D7 asexual blood stages; assay: Standard 72-hour inhibitor-response (parasite proliferation) assay; type: cell-based; conditions: Plasmodium falciparum, read-out: 3D7 EC50
P. falciparum clone 7G8 [13] = assay: Standard growth inhibition assay, Pf clone panel; type: cell-based; conditions: Plasmodium falciparum; clone 7G8, Brazil; read-out: EC50 (nM) (95% CI)
Experimental: (§1) A diverse panel of P. falciparum clones, collected from four continents with varying genetic backgrounds and well-characterized susceptibilities to novel and existing antimalarials, was treated with TrtE and DHA in standard growth inhibition assays. […] Additional studies are needed to determine whether there is any similarity in mechanism between TrtE and DHA.

[14] = tested on: P. falciparum clone D10 w/ yDHODH; assay: Standard growth inhibition assay, Pf clone panel; type: cell-based; conditions: Plasmodium falciparum, D10, read-out: EC50 (nM) (95% CI)
Experimental: as §1

P. falciparum clone GMC1 [15] = assay: Standard growth inhibition assay, Pf clone panel; type: cell-based; conditions: Plasmodium falciparum; clone GMC1, Goa, India; read-out: EC50 (nM) (95% CI)
Experimental: as §1

[16] = tested on: P. falciparum clone IPC 3445; assay: Standard growth inhibition assay, Pf clone panel; type: cell-based; conditions: Plasmodium falciparum; clone IPC 3445, Palin, Cambodia; read-out: EC50 (nM) (95% CI)
Experimental: as §1

P. falciparum clone NF54 [17] = assay: Standard growth inhibition assay, Pf clone panel; type: cell-based; conditions: Plasmodium falciparum; clone NF54, Netherlands; read-out: EC50 (nM) (95% CI)
Experimental: as §1

[18] = tested on: P. falciparum clone IPC 5202; assay: Standard growth inhibition assay, Pf clone panel; type: cell-based; conditions: Plasmodium falciparum; clone IPC 5202, Battambang, Cambodia; read-out: EC50 (nM) (95% CI)
Experimental: as §1

P. falciparum clone V1/S [19] = assay: Standard growth inhibition assay, Pf clone panel; type: cell-based; conditions: Plasmodium falciparum, Vietnam, read-out: EC50 (nM) (95% CI)
Experimental: as §1

[20] = tested on: P. falciparum clone TM90C2A; assay: Standard growth inhibition assay, Pf clone panel; type: cell-based; conditions: Plasmodium falciparum, Thailand, read-out: EC50 (nM) (95% CI)
Experimental: as §1

P. falciparum clone HB3 [21] = assay: Standard growth inhibition assay, Pf clone panel; type: cell-based; conditions: Plasmodium falciparum; clone HB3, Honduras; read-out: EC50 (nM) (95% CI)
Experimental: as §1

P. falciparum clone D6 [22] = assay: Standard growth inhibition assay, Pf clone panel; type: cell-based; conditions: Plasmodium falciparum; clone D6, Sierra Leone; read-out: EC50 (nM) (95% CI)
Experimental: as §1

P. falciparum clone 3D7 [23] = assay: Standard growth inhibition assay, Pf clone panel; type: cell-based; conditions: Plasmodium falciparum; clone 3D7, Netherlands; read-out: EC50 (nM) (95% CI)
Experimental: as §1

P. falciparum clone Dd2 [24] = assay: Standard growth inhibition assay, Pf clone panel; type: cell-based; conditions: Plasmodium falciparum; clone Dd2, SE Asia; read-out: EC50 (nM) (95% CI)
Experimental: as §1

[25] = tested on: P. falciparum clone D10 w/ yDHODH; conditions: by EC50 or, for ART, RSA, well-characterized susceptibilities; cited from earlier work
[26] = tested on: human liver cell line HepG2; assay: In vitro cytotoxicity assay; type: cell-based; conditions: for EC50: Homo sapiens, HepG2, read-out: EC50 (µM) (95% CI) HepG2
Experimental: (§2) In preliminary experiments to evaluate cytotoxicity to mammalian cells, the murine leukemia L1210 cell line and the human liver cell line HepG2 were grown under identical conditions alongside Pf 3D7. These were treated with TrtE, the chemotherapeutic methotrexate, and DSM265, an inhibitor of parasite dihydroorotate dehydrogenase ([19]).

Pf 3D7 = assay: Parasite growth alongside mammalian cytotoxicity assays; type: cell-based; conditions: Plasmodium falciparum; 3D7, grown under identical conditions alongside mammalian cells; read-out: EC50 (µM) (95% CI) 3D7
Experimental: as §2

[27] = tested on: murine leukemia L1210 cell line; assay: In vitro cytotoxicity assay; conditions: for EC50: Mus musculus, L1210, read-out: EC50 (µM) (95% CI) L1210
Experimental: as §2

[28] = tested on: P. falciparum gametocytes; parameters: method as in PMID 24206914; conditions: read-out: gametocytocidal potency of comparator antimalarials; cited from earlier work

Compound	Clone susceptibility to antimalarial (R/S) [1]	Clone susceptibility to antimalarial (R/S) [2]	Clone susceptibility to antimalarial (R/S) (P. falciparum clone 3D7 [3])	Clone susceptibility to antimalarial (R/S) (P. falciparum clone HB3 [4])	Clone susceptibility to antimalarial (R/S) (P. falciparum clone 7G8 [5])	Clone susceptibility to antimalarial (R/S) (P. falciparum clone Dd2 [6])	Clone susceptibility to antimalarial (R/S) (P. falciparum clone D6 [7])	Clone susceptibility to antimalarial (R/S) (P. falciparum clone GMC1 [8])	Clone susceptibility to antimalarial (R/S) [9]	Clone susceptibility to antimalarial (R/S) (P. falciparum clone NF54 [10])	Clone susceptibility to antimalarial (R/S) (P. falciparum clone V1/S [11])	EC50 ([12]; 3D7, 72-hour assay) [nM]	Clone susceptibility to antimalarial (R/S) [25]	further results
CC1(C)N=C(N)N=C(N)N1c1ccc(Cl)cc1 [CG, cycloguanil]	R	R	S	S	R	R	S	R	R	S	R	–	–	–
C[C@H]1[C@@H](O)O[C@@H]2O[C@@]3(C)CC[C@H]4[C@H](C)CC[C@@H]1[C@@]24OO3 [DHA, dihydroartemisinin]	–	–	–	–	–	–	–	–	–	–	–	0.129	–	EC50 (P. falciparum clone 7G8 [13]): 0.095 nM; EC50 [14]: 0.12 nM; EC50 (P. falciparum clone GMC1 [15]): 0.21 nM; EC50 [16]: 0.92 nM; EC50 (P. falciparum clone NF54 [17]): 0.15 nM; EC50 [18]: 0.94 nM; EC50 (P. falciparum clone V1/S [19]): 0.084 nM; EC50 [20]: 0.091 nM; EC50 (P. falciparum clone HB3 [21]): 0.16 nM; EC50 (P. falciparum clone D6 [22]): 0.17 nM; EC50 (P. falciparum clone 3D7 [23]): 0.11 nM; EC50 (P. falciparum clone Dd2 [24]): 0.14 nM
Cc1cc(Nc2ccc3ccccc3c2)n2ncnc2n1 [DSM1]	S	S	S	S	S	S	S	S	S	S	S	–	R	–
Cc1cc(Nc2ccc(S(F)(F)(F)(F)F)cc2)n2nc(C(C)(F)F)nc2n1 [DSM265]	–	–	–	–	–	–	–	–	–	–	–	5	–	Selectivity index (EC50 of HepG2/EC50 3D7) ([26]; HepG2 vs 3D7): 1,980; EC50 [26]: 9.9 µM; EC50 (Pf 3D7): 0.005 µM; Selectivity index (EC50 of L1210/EC50 3D7) ([27]; L1210 vs 3D7): > 4,000; EC50 [27]: > 20 µM
OC(c1cc(C(F)(F)F)nc2c(C(F)(F)F)cccc12)C1CCCCN1 (stereo not shown) [MQ, mefloquine]	R	R	S	S	S	R	S	S	R	S	S	–	S	–
CN(Cc1cnc2nc(N)nc(N)c2n1)c1ccc(C(=O)N[C@@H](CCC(=O)O)C(=O)O)cc1 [Methotrexate]	–	–	–	–	–	–	–	–	–	–	–	–	–	EC50 [26]: > 1 µM; EC50 (Pf 3D7): 0.047 µM; EC50 [27]: 0.012 µM
C=C[C@H]1C[N@@]2CC[C@H]1C[C@H]2[C@H](O)c1ccnc2ccc(OC)cc12 [QN, quinine]	–	R	S	S	R	R	S	–	R	S	R	–	–	–
COc1ncnc(NS(=O)(=O)c2ccc(N)cc2)c1OC [SDX, sulfadoxine]	–	R	R	S	–	R	S	R	R	R	–	–	–	–
C[C@@H]1CC[C@H]2[C@@H](C)C(=O)O[C@@H]3O[C@@]4(C)CC[C@@H]1[C@]32OO4 [artemisinin]	S	R	S	S	S	S	S	S	R	S	S	6	S	–
O=C1C(O)=C([C@H]2CC[C@H](c3ccc(Cl)cc3)CC2)C(=O)c2ccccc21 [atovaquone]	S	S	S	S	S	S	S	S	S	S	S	1	R	–
CCN(CC)CCCC(C)Nc1ccnc2cc(Cl)ccc12 (stereo not shown) [chloroquine]	R	R	S	S	R	R	S	R	R	S	R	–	S	EC50 ([12]; 3D7, 72 h): 6 nM
COc1cc(NC(C)CCCN)c2ncccc2c1 (stereo not shown) [primaquine]	–	–	–	–	–	–	–	–	–	–	–	–	–	EC50 [28]: > 40000 nM
CCc1nc(N)nc(N)c1-c1ccc(Cl)cc1 [pyrimethamine]	R	R	S	R	R	R	S	R	R	S	R	19	–	–
COc1ccc2nc3cc(Cl)ccc3c(Nc3cc(CN4CCCC4)c(O)c(CN4CCCC4)c3)c2n1 [pyronaridine]	–	–	–	–	–	–	–	–	–	–	–	–	–	EC50 [28]: 4260 nM
